From patent publication US6734190B2, “Dihydrodipyrazolopyridinylbenzamide and -sulfonamide inhibitors of B7-1” (Wyeth, priority 2002, dated 2004)

target: T1, B7-1/CD28 (Homo sapiens, UniProt P33681); assay: CD28/B7-1 ELISA (B7-1/CD28 binding inhibition); details: CD28-Fc coated wells; B7-1-Fc-biotin/streptavidin-alkaline phosphatase detection complex; 1% DMSO
T1 sequence (P33681 35-242 limits assumed): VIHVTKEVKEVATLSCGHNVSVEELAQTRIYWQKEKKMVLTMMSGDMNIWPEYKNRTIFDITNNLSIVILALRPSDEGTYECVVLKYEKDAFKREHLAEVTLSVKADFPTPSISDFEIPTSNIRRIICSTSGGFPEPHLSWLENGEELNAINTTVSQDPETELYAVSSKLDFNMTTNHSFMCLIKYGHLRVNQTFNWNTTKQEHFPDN
Method: Evaluation of B7-1/CD28 Binding Inhibition for Test Compounds
Wells are coated with 300 ng CD28-Fc in carbonate buffer (pH 9.4) overnight at 4° C., blocked with 1% bovine serum albumin in tris-buffered saline (TBS) for 1 h at 22° C. and washed 3 times in TBS prior to assay. The detection complex is formed as follows: B7-1-Fc-biotin, prepared using NHS-LC-biotin (Pierce #21335) according to the manufacturers instructions (4.1 moles biotinimole Fc), is added at 0.8 ug/ml to streptavidin-alkaline phosphatase (Caltag Sa1008) at 1:1000 in TBS. A solution of test compound in dimethylsulfoxide (1% final) are added to this complex and incubated 30 min at 22° C. Detection complex (+/−inhibitors) is then added to the CD28 coated wells for 25 min at 22° C., washed 5 times with TBS, developed with the colorimetric substrate pNPP (Pierce #34045) in diethanolamine/MgCl2 buffer (pH 9.5) and read at 405 nm. The inhibition constant (IC50) is calculated by subtracting background binding and comparing to uninhibited (DMSO alone) controls. The inhibition constant represents the concentration of test compound required to achieve 50% inhibition.

Point of comparison: `CC(C)c1ccc(NC(=O)c2ccc(-n3[nH]c4c(c(-c5cccc(C(F)(F)F)c5)nc5c4cnn5C)c3=O)cc2)cc1` [Example 78], IC50 120 nM. Against it:
- Cn1ncc2c3[nH]n(-c4cccc(C(=O)N5CCOCC5)c4)c(=O)c3c(-c3cccc(C(F)(F)F)c3)nc21 [Example 6] — 2.2-fold lower, 54 nM
- Cn1ncc2c3[nH]n(-c4cccc(C(=O)Nc5ccc(O)cc5)c4)c(=O)c3c(-c3cccc(C(F)(F)F)c3)nc21 [Example 7, N-(4-hydroxyphenyl)-3-(6-methyl-3-oxo-4-[3-(trifluoromethyl)phenyl]-3,6-dihydrodipyrazolo[3,4-b:3,4-d]pyridin-2(1H)-yl)benzamide] — 3.2-fold lower, 38 nM
- COC(CN(C)C(=O)c1cccc(-n2[nH]c3c(c(-c4cccc(C(F)(F)F)c4)nc4c3cnn4C)c2=O)c1)OC [Example 8, N-(2,2-dimethoxyethyl)-N-methyl-3-(6-methyl-3-oxo-4-[3-(trfluoromethyl)phenyl]-3,6-dihydrodipyrazolo[3,4-b:3,4-d]pyridin-2(1H)-yl)benzamide] — 3.9-fold lower, 31 nM
- Cn1ncc2c3[nH]n(-c4cccc(C(=O)N5CCSCC5)c4)c(=O)c3c(-c3cccc(C(F)(F)F)c3)nc21 [Example 10] — 1.7-fold lower, 70 nM
- Cn1ncc2c3[nH]n(-c4cccc(C(=O)NCC5CC5)c4)c(=O)c3c(-c3cccc(C(F)(F)F)c3)nc21 [Example 12] — 1.5-fold lower, 80 nM
- CN(CCO)C(=O)c1cccc(-n2[nH]c3c(c(-c4cccc(C(F)(F)F)c4)nc4c3cnn4C)c2=O)c1 [Example 14] — 2-fold lower, 61 nM
- COC(=O)c1cn(C(=O)c2cccc(-n3[nH]c4c(c(-c5cccc(C(F)(F)F)c5)nc5c4cnn5C)c3=O)c2)c2ccccc12 [Example 15] — 1.9-fold lower, 63 nM
- CC(O)CNC(=O)c1cccc(-n2[nH]c3c(c(-c4cccc(C(F)(F)F)c4)nc4c3cnn4C)c2=O)c1 (stereo not shown) [Example 19, N-(2-hydroxypropyl)-3-(6-methyl-3-oxo-4-[3-(trifluoromethyl)phenyl]-3,6-dihydrodipyrazolo[3,4-b:3,4-d]-pyridin-2(1H)-yl)benzamide] — 2.7-fold lower, 45 nM
- COCCNC(=O)c1cccc(-n2[nH]c3c(c(-c4cccc(C(F)(F)F)c4)nc4c3cnn4C)c2=O)c1 [Example 20] — 1.9-fold lower, 62 nM
- Cn1ncc2c3[nH]n(-c4ccc(Cl)c(C(=O)N5CCC[C@@H]5CO)c4)c(=O)c3c(-c3cccc(C(F)(F)F)c3)nc21 [Example 23, 2-(4-chloro-3-{[(2R)-2-(hydroxymethyl)pyrrolidin-1-yl]carbonyl}phenyl)-6-methyl-4-[3-(trifluoromethyl)phenyl]-1,6-dihydrodipyrazolo[3,4-b:3,4-d]pyridin-3(2H)-one] — 2.8-fold lower, 43 nM
- Cn1ncc2c3[nH]n(-c4ccc(C(=O)Nc5cccc(CO)c5)cc4)c(=O)c3c(-c3cccc(C(F)(F)F)c3)nc21 [Example 35, N-[3-(hydroxymethyl)phenyl]4-(6-methyl-3-oxo-4-[3-(trifluoromethyl)phenyl]-3,6-dihydrodipyrazolo[3,4-b:3,4-d]pyridin-2(1H)-yl)benzamide] — 7.1-fold lower, 17 nM
- Cn1ncc2c3[nH]n(-c4cccc(C(=O)NN)c4)c(=O)c3c(-c3cccc(C(F)(F)F)c3)nc21 [Example 44] — 1.5-fold lower, 80 nM
- COC(=O)CNC(=O)c1cccc(-n2[nH]c3c(c(-c4cccc(C(F)(F)F)c4)nc4c3cnn4C)c2=O)c1 [Example 45] — within 1.5-fold, 100 nM
- Cn1ncc2c3[nH]n(-c4cccc(C(=O)NCCOCCOCCN)c4)c(=O)c3c(-c3cccc(C(F)(F)F)c3)nc21 [Example 46] — within 1.5-fold, 150 nM
- Cn1ncc2c3[nH]n(-c4cccc(C(=O)Nc5ccc(F)c(F)c5)c4)c(=O)c3c(-c3cccc(C(F)(F)F)c3)nc21 [Example 47] — 2.3-fold higher, 280 nM
- CCOC(=O)c1cccc(NC(=O)c2cccc(-n3[nH]c4c(c(-c5cccc(C(F)(F)F)c5)nc5c4cnn5C)c3=O)c2)c1 [Example 48] — 3.7-fold higher, 440 nM
- Cn1ncc2c3[nH]n(-c4cccc(C(=O)NCc5ccccc5)c4)c(=O)c3c(-c3cccc(C(F)(F)F)c3)nc21 [Example 49] — the same, 120 nM
- Cn1ncc2c3[nH]n(-c4cccc(C(=O)Nc5cccc(CO)c5)c4)c(=O)c3c(-c3cccc(C(F)(F)F)c3)nc21 [Example 50] — within 1.5-fold, 100 nM
- CC(O)c1cccc(NC(=O)c2cccc(-n3[nH]c4c(c(-c5cccc(C(F)(F)F)c5)nc5c4cnn5C)c3=O)c2)c1 (stereo not shown) [Example 51] — within 1.5-fold, 130 nM
- Cn1ncc2c3[nH]n(-c4cccc(C(=O)N5CCc6ccccc6C5)c4)c(=O)c3c(-c3cccc(C(F)(F)F)c3)nc21 [Example 52] — 2.5-fold higher, 300 nM
- COC(=O)[C@H]1CCCN1C(=O)c1cccc(-n2[nH]c3c(c(-c4cccc(C(F)(F)F)c4)nc4c3cnn4C)c2=O)c1 [Example 53] — 2.2-fold higher, 270 nM
- Cn1ncc2c3[nH]n(-c4cccc(C(=O)N5CCC(C(=O)O)CC5)c4)c(=O)c3c(-c3cccc(C(F)(F)F)c3)nc21 [Example 54] — 7.2-fold higher, 860 nM
- Cn1ncc2c3[nH]n(-c4cccc(C(=O)Nc5ccc(CCO)cc5)c4)c(=O)c3c(-c3cccc(C(F)(F)F)c3)nc21 [Example 55] — within 1.5-fold, 110 nM
- CN(Cc1ccccc1)C(=O)c1cccc(-n2[nH]c3c(c(-c4cccc(C(F)(F)F)c4)nc4c3cnn4C)c2=O)c1 [Example 56] — 1.5-fold higher, 180 nM
- CC1CCCN(C(=O)c2cccc(-n3[nH]c4c(c(-c5cccc(C(F)(F)F)c5)nc5c4cnn5C)c3=O)c2)C1 (stereo not shown) [Example 57] — within 1.5-fold, 92 nM
- CCN(CC)C(=O)C1CCCN(C(=O)c2cccc(-n3[nH]c4c(c(-c5cccc(C(F)(F)F)c5)nc5c4cnn5C)c3=O)c2)C1 (stereo not shown) [Example 58] — within 1.5-fold, 110 nM
- Cn1ncc2c3[nH]n(-c4cccc(C(=O)N5CCC(O)CC5)c4)c(=O)c3c(-c3cccc(C(F)(F)F)c3)nc21 [Example 59] — within 1.5-fold, 105 nM
- COc1ccc(CNC(=O)c2cccc(-n3[nH]c4c(c(-c5cccc(C(F)(F)F)c5)nc5c4cnn5C)c3=O)c2)cc1 [Example 60] — 1.5-fold higher, 180 nM
- CN(CCC#N)C(=O)c1cccc(-n2[nH]c3c(c(-c4cccc(C(F)(F)F)c4)nc4c3cnn4C)c2=O)c1 [Example 61] — 2.8-fold higher, 330 nM
- Cn1ncc2c3[nH]n(-c4ccc(F)c(C(=O)Nc5ccc(CCO)cc5)c4)c(=O)c3c(-c3cccc(C(F)(F)F)c3)nc21 [Example 62] — 3.2-fold higher, 380 nM
- COCCCNC(=O)c1cccc(-n2[nH]c3c(c(-c4cccc(C(F)(F)F)c4)nc4c3cnn4C)c2=O)c1 [Example 63] — 1.5-fold higher, 180 nM
- COC(=O)[C@H]1CCCN1C(=O)c1cc(-n2[nH]c3c(c(-c4cccc(C(F)(F)F)c4)nc4c3cnn4C)c2=O)ccc1Cl [Example 64] — 1.5-fold higher, 180 nM
- CC(O)c1cccc(NC(=O)c2cc(-n3[nH]c4c(c(-c5cccc(C(F)(F)F)c5)nc5c4cnn5C)c3=O)ccc2F)c1 (stereo not shown) [Example 65] — 8.3-fold higher, 1000 nM
- Cn1ncc2c3[nH]n(-c4ccc(F)c(C(=O)N5CCOCC5)c4)c(=O)c3c(-c3cccc(C(F)(F)F)c3)nc21 [Example 66] — 20-fold higher, 2400 nM
- Cn1ncc2c3[nH]n(-c4ccc(F)c(C(=O)Nc5ccc(CO)cc5)c4)c(=O)c3c(-c3cccc(C(F)(F)F)c3)nc21 [Example 68] — 3.1-fold higher, 370 nM
- Cn1ncc2c3[nH]n(-c4ccc(C(N)=O)cc4)c(=O)c3c(-c3cccc(C(F)(F)F)c3)nc21 [Example 70] — 3.2-fold lower, 38 nM
- Cn1ncc2c3[nH]n(-c4ccc(C(=O)Nc5cccc(O)c5)cc4)c(=O)c3c(-c3cccc(C(F)(F)F)c3)nc21 [Example 71] — within 1.5-fold, 140 nM
- CN(CCC#N)C(=O)c1ccc(-n2[nH]c3c(c(-c4cccc(C(F)(F)F)c4)nc4c3cnn4C)c2=O)cc1 [Example 72] — within 1.5-fold, 110 nM
- Cn1ncc2c3[nH]n(-c4ccc(C(=O)Nc5ccc(O)cc5)cc4)c(=O)c3c(-c3cccc(C(F)(F)F)c3)nc21 [Example 73] — 11-fold lower, 11 nM
- Cn1ncc2c3[nH]n(-c4ccc(C(=O)Nc5ccccc5O)cc4)c(=O)c3c(-c3cccc(C(F)(F)F)c3)nc21 [Example 74, N-(2-hydroxyphenyl)-4-{6-methyl-3-oxo-3-[3-(trfluoromethyl)phenyl]-3,6-dihydrodipyrazolo[3,4-b:3′,4′-d]pyridin-2(1H)-yl}benzamide] — 7.1-fold lower, 17 nM
- Cn1ncc2c3[nH]n(-c4ccc(C(=O)NCC5CC5)cc4)c(=O)c3c(-c3cccc(C(F)(F)F)c3)nc21 [Example 75] — within 1.5-fold, 107 nM
- CC(O)CNC(=O)c1ccc(-n2[nH]c3c(c(-c4cccc(C(F)(F)F)c4)nc4c3cnn4C)c2=O)cc1 (stereo not shown) [Example 76] — 2.4-fold lower, 50 nM
- Cn1ncc2c3[nH]n(-c4ccc(C(=O)N5CCSCC5)cc4)c(=O)c3c(-c3cccc(C(F)(F)F)c3)nc21 [Example 77] — within 1.5-fold, 140 nM
- Cn1ncc2c3[nH]n(-c4ccc(C(=O)Nc5cccnc5)cc4)c(=O)c3c(-c3cccc(C(F)(F)F)c3)nc21 [Example 79] — 1.5-fold higher, 180 nM
- COC(CN(C)C(=O)c1ccc(-n2[nH]c3c(c(-c4cccc(C(F)(F)F)c4)nc4c3cnn4C)c2=O)cc1)OC [Example 80] — within 1.5-fold, 170 nM
- Cn1ncc2c3[nH]n(-c4ccc(C(=O)N5CCCC5)cc4)c(=O)c3c(-c3cccc(C(F)(F)F)c3)nc21 [Example 81] — within 1.5-fold, 110 nM
- Cn1ncc2c3[nH]n(-c4ccc(C(=O)Nc5ccc(F)c(F)c5)cc4)c(=O)c3c(-c3cccc(C(F)(F)F)c3)nc21 [Example 82] — the same, 120 nM
- Cn1ncc2c3[nH]n(-c4ccc(C(=O)N5CCSC5)cc4)c(=O)c3c(-c3cccc(C(F)(F)F)c3)nc21 [Example 83] — within 1.5-fold, 110 nM
